# Reference: PMC11052001, “A Novel IRAK4 Inhibitor DW18134 Ameliorates Peritonitis and Inflammatory Bowel Disease” (Molecules, 2024)
# Biological target: T1, IRAK4 (Homo sapiens, UniProt Q9NWZ3)
# T1 sequence (Q9NWZ3 1-460): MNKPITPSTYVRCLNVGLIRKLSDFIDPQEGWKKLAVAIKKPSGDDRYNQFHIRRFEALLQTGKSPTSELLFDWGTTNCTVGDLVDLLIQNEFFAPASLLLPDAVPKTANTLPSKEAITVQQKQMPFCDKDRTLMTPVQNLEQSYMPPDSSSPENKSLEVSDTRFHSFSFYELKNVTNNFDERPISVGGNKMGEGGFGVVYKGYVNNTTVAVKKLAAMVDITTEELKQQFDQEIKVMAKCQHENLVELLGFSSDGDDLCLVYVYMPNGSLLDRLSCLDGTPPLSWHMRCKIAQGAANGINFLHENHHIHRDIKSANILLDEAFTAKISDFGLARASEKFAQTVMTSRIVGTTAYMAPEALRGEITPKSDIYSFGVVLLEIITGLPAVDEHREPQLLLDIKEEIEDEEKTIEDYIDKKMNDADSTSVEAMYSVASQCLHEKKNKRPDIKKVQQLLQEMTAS
# Assay: enzymatic kinase activity assay
# Type: biochemical
# Conditions: read-out: DW18134
structure (smiles),measurement,value
CC1(C)Cc2cc(NC(=O)c3coc(-c4ccnc(N)c4)n3)c(-c3ccncc3)cc2O1 [DW18134],IC50,11.2 ± 2 nM
